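Dose response: 5 concentrations. Exposure: 48 h. Format: 96-well plates. Endpoint: linear interpolation; highest concentration if not reached. GI50 marks 50% less growth. TGI denotes the concentration required for complete inhibition of growth.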
Key:
Assay in all cases: NCI tumour cell line growth inhibition, 48 h
SNB-75 CNS = test system: SNB-75 CNS
SN12C renal = test system: SN12C renal
KM12 colon = test system: KM12 colon
HCC-2998 colon = test system: HCC-2998 colon
OVCAR-4 ovarian = test system: OVCAR-4 ovarian
U251 CNS = test system: U251 CNS
HCT-15 colon = test system: HCT-15 colon
NCI-H460 lung = test system: NCI-H460 lung
MDA-MB-435 = test system: MDA-MB-435
MCF7 breast = test system: MCF7 breast
BT-549 breast = test system: BT-549 breast
HCT-116 colon = test system: HCT-116 colon
PC-3 prostate = test system: PC-3 prostate
HOP-92 NSCLC = test system: HOP-92 NSCLC
NCI-H226 lung = test system: NCI-H226 lung
UO-31 renal = test system: UO-31 renal
IGROV1 ovarian = test system: IGROV1 ovarian
MALME-3M melanoma = test system: MALME-3M melanoma
SF-268 CNS = test system: SF-268 CNS
SR leukemia = test system: SR leukemia
ACHN renal = test system: ACHN renal
DU-145 prostate = test system: DU-145 prostate
MDA-MB-231 breast = test system: MDA-MB-231 breast
LOX IMVI melanoma = test system: LOX IMVI melanoma
A498 renal = test system: A498 renal
SK-MEL-2 melanoma = test system: SK-MEL-2 melanoma
A549 NSCLC = test system: A549 NSCLC
SK-OV-3 ovarian = test system: SK-OV-3 ovarian

Structure (SMILES): CN(C)CCNc1cc(-c2ccccc2)nc2ccccc12
- GI50 (SNB-75 CNS): 9.57 µM
- TGI (SNB-75 CNS): 23.4 µM
- GI50 (SN12C renal): 6.55 µM
- TGI (SN12C renal): 44.1 µM
- GI50 (KM12 colon): 4.87 µM
- TGI (KM12 colon): 27.4 µM
- GI50 (HCC-2998 colon): 10.2 µM
- TGI (HCC-2998 colon): 25.1 µM
- GI50 (OVCAR-4 ovarian): 7.45 µM
- TGI (OVCAR-4 ovarian): 37.4 µM
- GI50 (U251 CNS): 3.48 µM
- TGI (U251 CNS): 11.2 µM
- GI50 (HCT-15 colon): 4.48 µM
- TGI (HCT-15 colon): 62.5 µM
- GI50 (NCI-H460 lung): 3.5 µM
- TGI (NCI-H460 lung): 12.8 µM
- GI50 (MDA-MB-435): 6.12 µM
- TGI (MDA-MB-435): 20.6 µM
- GI50 (MCF7 breast): 3.68 µM
- TGI (MCF7 breast): 19.7 µM
- GI50 (BT-549 breast): 11.5 µM
- TGI (BT-549 breast): 28.8 µM
- GI50 (HCT-116 colon): 3.75 µM
- TGI (HCT-116 colon): 18.8 µM
- GI50 (PC-3 prostate): 4.61 µM
- TGI (PC-3 prostate): 24.9 µM
- GI50 (HOP-92 NSCLC): 3.21 µM
- TGI (HOP-92 NSCLC): 21.3 µM
- GI50 (NCI-H226 lung): 5.98 µM
- TGI (NCI-H226 lung): 30.2 µM
- GI50 (UO-31 renal): 4.01 µM
- TGI (UO-31 renal): 26.9 µM
- GI50 (IGROV1 ovarian): 6.57 µM
- TGI (IGROV1 ovarian): 35.1 µM
- GI50 (MALME-3M melanoma): 12.6 µM
- TGI (MALME-3M melanoma): 27.7 µM
- GI50 (SF-268 CNS): 4.98 µM
- TGI (SF-268 CNS): 22.7 µM
- GI50 (SR leukemia): 2.72 µM
- TGI (SR leukemia): 8.37 µM
- GI50 (ACHN renal): 4.42 µM
- TGI (ACHN renal): 38.9 µM
- GI50 (DU-145 prostate): 5.04 µM
- TGI (DU-145 prostate): 22.2 µM
- GI50 (MDA-MB-231 breast): 7.45 µM
- TGI (MDA-MB-231 breast): 32.5 µM
- GI50 (LOX IMVI melanoma): 3.6 µM
- TGI (LOX IMVI melanoma): 14.4 µM
- GI50 (A498 renal): 2.01 µM
- TGI (A498 renal): 13.6 µM
- GI50 (SK-MEL-2 melanoma): 11.3 µM
- TGI (SK-MEL-2 melanoma): 24.9 µM
- GI50 (A549 NSCLC): 4.83 µM
- TGI (A549 NSCLC): 43.5 µM
- GI50 (SK-OV-3 ovarian): 9.24 µM
- TGI (SK-OV-3 ovarian): 39 µM
